Results: ChEMBL document CHEMBL1914370, “A Pd-mediated new strategy to functionalized 2-aminochromenes: their in vitro evaluation as potential anti tuberculosis agents” (Bioorg Med Chem Lett, 2011)

tested on: Mycobacterium tuberculosis H37Rv; test: Inhibition of Mycobacterium tuberculosis H37Rv chorismate mutase expressed in Escherichia coli BL21 (DE3) assessed as conversion of chorismate to prephenate at 50 uM after 5 mins by spectrophotometry

Compared with `N#CC1=C(N)Oc2ccc3ccccc3c2C1c1cccc(C#CCCO)c1` (centres undefined), `N#CC1=C(N)Oc2ccc3ccccc3c2C1c1cccc(C#CCCCO)c1` (centres undefined) is higher in inhibition: 69% for the first, 70% for the second.

Going from `CCCCCCC#Cc1ccccc1C1C(C#N)=C(N)Oc2c1ccc1ccccc21` (centres undefined) to `CCCCCCCCC#Cc1ccccc1C1C(C#N)=C(N)Oc2c1ccc1ccccc21` (centres undefined), the inhibition falls from 55% to 50%.

Compared with `N#CC1=C(N)Oc2c(ccc3ccccc23)C1c1ccccc1C#CC1(O)CCCCC1` (centres undefined), `N#CC1=C(N)Oc2c(ccc3ccccc23)C1c1cccc(C#CC2(O)CCCCC2)c1` (centres undefined) is higher in inhibition: 24% for the first, 28% for the second.

Going from `CCCCC#Cc1ccccc1C1C(C#N)=C(N)Oc2c1ccc1ccccc21` (centres undefined) to `N#CC1=C(N)Oc2c(ccc3ccccc23)C1c1cccc(C#CCCCO)c1` (centres undefined), the inhibition falls from 57% to 32%.

Compared with `CC(C)(C)OC(=O)/C=C/c1cccc(C2C(C#N)=C(N)Oc3ccc4ccccc4c32)c1` (centres undefined), `COC(=O)/C=C/c1cccc(C2C(C#N)=C(N)Oc3ccc4ccccc4c32)c1` (centres undefined) is lower in inhibition: 64% for the first, 33% for the second.

First: CCOC(=O)/C=C/c1cccc(C2C(C#N)=C(N)Oc3ccc4ccccc4c32)c1 (centres undefined)
Second: CC(=O)/C=C/c1cccc(C2C(C#N)=C(N)Oc3ccc4ccccc4c32)c1 (centres undefined)
The inhibition of the first is higher: 30% for the first, 10% for the second.

tested on: not listed separately; test: (§1) Inhibition of Mycobacterium tuberculosis H37Rv chorismate mutase expressed in Escherichia coli BL21 (DE3) assessed as conversion of chorismate to prephenate after 5 mins by spectrophotometry

In the case of `N#CC1=C(N)Oc2ccc3ccccc3c2C1c1cccc(C#CCCCO)c1` (centres undefined), the IC50 is reported as 15.6 µM.

tested on: Mycobacterium tuberculosis H37Rv; test: as §1

In the case of `N#CC1=C(N)Oc2ccc3ccccc3c2C1c1cccc(C#CCCCO)c1` (centres undefined), the inhibition is reported as “Dose-dependent effect”.
